Measured values from US20200188388A1, “METHODS AND COMPOSITIONS FOR PO[…] DRUGS AND REDUCING THEIR SIDE EFFECTS” (RVX THERAPEUTICS LTD., priority 2016, published 2020).
Values joined by “and” are separate entries in the source; they are usually repeats but may differ in a detail not shown here. Equal values may be shown once. Read-outs that look alike come from different tables or passages of the source.

Columns and labels:
[1] = tested on: Wistar rats; assay: Open field test, hypokinetic (sedative) or hyperkinetic action (analgesia examples); conditions: for Hyperkinesia or sedataion / Hyperkinesia / Hyperkinesia or sedation: unmarked cells; for Hyperkinesia or sedataion: doses as E12; for Hyperkinesia or sedation: doses as E6; for Horizontal locomotive activity: control 16.1
Description: (§1) To evaluate the hypokinetic (sedative) or hyperkinetic action effects of tested drugs an “open field” (OF) test was applied. In the OF test, the locomotive activity of rats is determined. Animals were placed in the center of square of the illuminated field (1 meter×1 meter) for 3 minutes and the mobility time was recorded in seconds (horizontal activity). […] To quantify the locomotive activity for each dose of test drug(s) an average horizontal activity was calculated.
as §1
To evaluate the hypokinetic (sedative) effects of drugs, “open field” (OF) test was applied. In the OF test, the locomotive activity of rats is determined. Animals were placed in the center of square of the illuminated field (1 meter×1 meter) for 3 minutes and the mobility time was recorded in seconds (horizontal activity). […] To quantify the locomotive activity for each dose of test drug(s), an average horizontal activity was calculated.
Tail-Flick and Open Field Tests were Conducted as Detailed Above.
as §1

[2] = tested on: male Wistar rats; assay: Opioid hyperalgesia in tail and paw withdrawal tests (% rats)
[3] = tested on: Wistar rats; assay: Open field test, hyperkinetic side effects (haloperidol catalepsy examples); format: in vivo, rat; conditions: oral
Description: To evaluate the side hyperkinetic effects of drugs, the test an “open field” (OF) test was applied. […] To quantify the locomotive activity for each dose of the test drug(s), an average horizontal activity was calculated.

[4] = tested on: Wistar rats; assay: Rotenone model: hyperkinetic side effect in open field test (days 10 and 18); format: in vivo, rat; conditions: for Hyperkmesia (% of group): phenylephrine 0.3 mg/kg oral
Description: Anti-parkinsonian effect of therapy in rats with rotenone-induced PD was estimated according to elimination of extrapyramidal disorders (catalepsy) and oligokinesia (rapid decreased amplitude and velocity of repeated movements) in the “open field” test. The neuro-protective effect of therapy was evaluated by the elimination of ataxia limb dystonia and mortality in rats with rotenone-induced PSP. Hyperkinetic side action (hyper-locomotion) was evaluated by increased horizontal and vertical activity in the open field at the 10th and 18th day of the experiment, calculated in % compared to the first day of the experiment.
Ataxia and limb dystonia registration was performed twice daily, 30 minutes before administration of rotenone and 180 minutes after administration of rotenone. For each experimental group on a daily basis, throughout the whole period of observation number of rats with severe ataxia and limb dystonia (++−+++) and mortality in % of the total number of rats in group was determined. The neuro-protective effect of therapy (effects on rate of ataxia, limb dystonia and lethality) in rats with PSP was determined at days 12 and 19 of the experiment as reducing the number of rats with severe ataxia limb dystonia and mortality in % compared to control. Side hyperkinetic effects were evaluated in the “open field” test. In this test the locomotive activity in rats is determined. […] Registration of horizontal and vertical locomotive activity in OF assay was performed on the 10th and 18th day of the experiment, within 40 minutes after administration of the substance and 5 minutes before administration of rotenone. Side hyperkinetic effects was evaluated by the number of rats with a significant (at least 50% compared with the first day of the experiment) increase in horizontal and vertical activity (hyperkinesia) as a % of the total number of rats in group.
Anti-parkinsonian effect of therapy in rats with rotenone-induced parkinsonism was estimated according to elimination of extrapyramidal disorders (catalepsy) and oligokinesia in the “open field” test. The neuro-protective effect of therapy was evaluated by the elimination of ataxia and mortality in rats with rotenone-induced PSP. Hyperkinetic side action (hyper-locomotion) was evaluated by increased horizontal and vertical activity in the open field at the 10th and 18th day of the experiment, calculated in % compared to the first day of the experiment.
The neuro-protective effect in the experimental groups of rats with rotenone-induced PSP was evaluated due the elimination of ataxia and mortality caused by neurotoxic action of rotenone. Ataxia is typical incoordination neurotoxic effect of rotenone manifested in uncoordinated movements and hyper-locomotion, replaced by hypokinesia and stereotypes, and in severe cases a complete violation of antigravity reflexes, falling on its side and akinesia. Assessment of the severity of ataxia in scores was performed using the following scale: (+) uncoordinated movement, hyperkinesia; (++) significant incoordination, hypokinesia, stereotypes, falling on its side; (+++) complete violation of antigravity reflexes, akinesia. Ataxia registration was performed twice daily, 30 minutes before administration of rotenone and 180 minutes after administration of rotenone. For each experimental group on a daily basis, throughout the whole period of observation number of rats with severe ataxia (++−+++) and mortality in % of the total number of rats in group was determined. The neuro-protective effect of therapy (effects on rate of ataxia and lethality) in rats with PSP was determined at days 12 and 19 of the experiment as reducing the number of rats with severe ataxia and mortality in % compared to control. Side hyperkinetic effects were evaluated in the “open field” test. In this test the locomotive activity in rats is determined. […]

[5] = tested on: Wistar rats; assay: Rotenone-induced PD: severe oligokinesia in open field test; format: in vivo, rat; conditions: for Severe oligokinesia (% of group): phenylephrine 0.3 mg/kg oral, oligokinesia ++-+++ in OF test; for Severe oligokinesia, Day 12 / Severe oligokinesia, Day 19: control 100
Description: Locomotive activity of rats was tested in the “open field” test. […] Registration of horizontal and vertical locomotive activity was carried out in first day for rats with high selection locomotive activity (total walking time with not less than 12 seconds and the number of vertical uprights at least 4), 60 minutes before the first administration of rotenone. To identify the rotenone-induced oligokinesia in each experimental group the locomotive activity in the open field test was examined again 2 hours after the administration of rotenone on days 12 and 19 of the experiment.
(§2) Quantification of oligokinesia in points: 0 points—the highest horizontal activity (walking total time more than 12 seconds) and high vertical activity (number of vertical posts) more than 3; 1 point—reducing the horizontal activity (total walking time 7-11 seconds) and a decrease in vertical activity (the number of vertical columns 1-3); 2 points—a significant reduction in horizontal activity (total walking time 2-6 seconds) and the absence of vertical activity (the number of vertical columns 0-1); 3 points—the absence of horizontal activity (total walking time 0-1 seconds) and the absence of vertical activity (number of vertical columns 0). In each experimental group 120 minutes after administration of rotenone on days 12 and 19 of experiment the number of rats with severe oligokinesia (2-3 points) in % of the total number of rats in group was determined.
Locomotive activity of rats was tested in the “open field” test. […] Registration of horizontal and vertical locomotive activity was carried out in first day for rats with high selection locomotive activity (total walking time with not less than 12 seconds and the number of vertical uprights at least 4), 60 minutes before the first administration of rotenone. To identify the rotenone-induced oligokynesia in each experimental group the locomotive activity in the open field test was examined again 2 hours after the administration of rotenone on days 12 and 19 of the experiment.
as §2, with “of oligokynesia” for “of oligokinesia”

SMILES: CN(C)CCC=C1c2ccccc2CCc2ccccc21 [Amitriptyline, amitriptyline]
- Hyperkinesia or sedataion [1]: 0 % rats
- Hyperkinesia ([1]; doses as E54): 0 % rats
- Hyperalgesia ([2]; doses as E12): 0 % rats
- Hyperalgesia ([2]; doses as E54): 0 % rats

SMILES: Cc1c(N(C)CS(=O)(=O)[O-])c(=O)n(-c2ccccc2)n1C.[Na+] [Dipyrone, dipyrone]
- Hyperkinesia or sedataion [1]: 0 % rats
- Hyperkinesia ([1]; doses as E54): 0 % rats
- Hyperalgesia ([2]; doses as E12): 0 % rats
- Hyperalgesia ([2]; doses as E54): 0 % rats

SMILES: CNC[C@H](O)c1ccc(O)c(O)c1 [Epinephrine, epinephrine]
- Locomotive horizontal activity in open field ([1]; I.M., control 15.6, doses by row as E32): 15.4 s and 15.9 s and 17.6 s
- Sedation ([1]; I.M., doses by row as E3): 0 % of Rats
- Sedation ([1]; I.M., doses by row as E32): 0% of group
- Hyperkinesia or sedation [1]: 0 % rats
- Hyperkinesia ([1]; doses as E48): 0 % rats
- Hyperalgesia ([2]; doses as E6): 0 % rats
- Hyperalgesia ([2]; doses as E48): 0 % rats

SMILES: CN1CC[C@]23c4c5ccc(O)c4O[C@H]2[C@@H](O)C=C[C@H]3[C@H]1C5 [Morphine, morphine]
- Horizontal locomotive activity ([1]; oral, doses as E35): 15.5 s and 13.2 s and 7.8 s
- Hyperkinesia or sedation [1]: 0 % rats
- Hyperkinesia or sedataion [1]: 0 % rats
- Hyperkinesia ([1]; doses as E48): 0 % rats
- Hyperkinesia ([1]; doses as E54): 0 % rats

SMILES: CNC[C@H](O)c1cccc(O)c1 [Phenylephrine, phenylephrine]
- Horizontal locomotive activity ([1]; oral, doses as E35): 15.9 s and 16.3 s and 17.9 s
- Sedation ([1]; oral, doses as E35): 0% of group
- Hyperkinesia or sedataion [1]: 0 % rats
- Hyperkinesia ([1]; doses as E54): 0 % rats
- Hyperkinesia ([3]; doses by row as E18): 0 % of Rats
- Hyperkinesia ([3]; doses by row as E30): 0 % of Rats
- Hyperkinesia ([3]; doses by row as E60): 0 % of Rats
- Hyperkinesia ([3]; open field 40 min after dosing, doses by row as E1): 0 % of Rats
- Hyperalgesia ([2]; doses as E12): 0 % rats
- Hyperalgesia ([2]; doses as E54): 0 % rats
- Hyperkinesia, Day 18 [4]: 0 % of group
- Hyperkmesia (% of group) ([4]; Day 10, locomotive activity in OF test increased more than 50% vs first day): 0 % of group
- Hyperkmesia (% of group) ([4]; Day 18, locomotive activity in OF test increased more than 50% vs first day): 0 % of group
- Hyperkinesia, Day 10 ([4]; doses as E38): 0 % of group
- Hyperkinesia, Day 18 ([4]; doses as E38): 0 % of group
- Hyperkinesia, Day 10 ([4]; locomotive activity in OF test increased more than 50% vs first day): 0 % of group
- Severe oligokinesia (% of group) ([5]; Day 12): 86 % of group
- Severe oligokinesia (% of group) ([5]; Day 19): 100 % of group
- Severe oligokinesia, Day 12 [5]: 86 % of group
- Severe oligokinesia, Day 19 [5]: 100 % of group
- Severe oligokinesia, Day 12 ([5]; doses as E38): 90 % of group
- Severe oligokinesia, Day 19 ([5]; doses as E38): 100 % of group
